Laboratory results reported in US12448388B2, “PRMT5 inhibitors and uses thereof” (Gilead Sciences, Inc., priority 2023, dated 2025).
pEC50: −log10 of the molar value. Read-outs that look alike come from different tables or passages of the source.

What was measured:
[1] = system: HCT116 MTAP-deleted cell lines; experiment: Cell viability assay (CellTiter-Glo, 7 days), HCT116 MTAP-deleted; type: cell-based; conditions: Homo sapiens, HCT-116, HCT116 MTAP-deleted, class symbols, read-out: CC50
Summary of the method: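 CC50 values come from 7-day CellTiter-Glo viability measurements on cells exposed to a dose range of PRMT5 inhibitors dispensed from DMSO stocks.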

[2] = system: Symmetric Di-methyl Arginine (SDMA) signal (PRMT5 inhibition) in HCT116 MTAP-deleted cells; experiment: Symmetric di-methyl arginine image-based high content screen assay (SDMA assay), HCT116 MTAP-deleted; type: cell-based; conditions: for pEC50: Homo sapiens, HCT-116, HCT116 MTAP-deleted, class symbols
Summary of the method: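 HCT116 WT and MTAP-deleted cells (800/well, RPMI 1640 + 10% FBS) treated with compound 3 days at 37 °C; formalin-fixed, stained with anti-SDMA antibody/Alexa 488 plus DAPI. Mean SDMA intensity per DAPI-defined cell imaged; EC50 from 4-parameter logistic fit.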

[3] = HCT116 WT versus HCT116 MTAP-deleted
[4] = HCT116 WT vs HCT116 MTAP-deleted

**Q.** Which CC50 ([1]; cell viability) does the source give for `Nc1nc2cc(F)c(C(=O)N(Cc3ccc(-c4cnn(C(F)(F)F)c4)cc3F)C34CC(C3)C4)cc2n2cncc12` [Ff-23, 4-amino-N-(bicyclo[1.1.1]pentan-1-yl)-7-fluoro-N-(2-fluoro-4-(1-(trifluoromethyl)-1H-pyrazol-4-yl)benzyl)imidazo[1,5-a]quinoxaline-8-carboxamide] here?
**A.** Its CC50 is less than 100 nM.

**Q.** What about the EC50 selectivity [2, 3] of the same molecule?
**A.** The EC50 selectivity was 48.

**Q.** What about the pEC50 [2] of the same molecule?
**A.** The pEC50 was 8.30 to 9.00.

**Q.** How did the CC50 ([1]; cell viability assay) turn out when `Nc1nc2cnc(C(=O)N3CCC[C@@H]4Oc5cc(C(F)(F)F)ccc5[C@@H]43)cc2n2cnc(F)c12` (single isomer, unassigned) [Ff-626] was run?
**A.** Its CC50 is less than 100 nM.

**Q.** And the EC50 selectivity [2, 4]?
**A.** The EC50 selectivity was 143.

**Q.** And the pEC50 [2]?
**A.** The pEC50 was 8.30 to 9.00.

**Q.** What does the source list for `CN(C(=O)c1cc2c(cc1F)nc(N)c1cncn12)[C@@H]1COCc2cc(-c3ccn(C(F)(F)F)n3)ccc21` [Ff-280, (S)-4-amino-7-fluoro-N-methyl-N-(7-(1-(trifluoromethyl)-1H-pyrazol-3-yl)isochroman-4-yl)imidazo[1,5-a]quinoxaline-8-carboxamide]?
**A.** CC50 ([1]; cell viability): < 100 nM; EC50 selectivity [2, 3]: 118; pEC50 [2]: 8.30 to 9.00

**Q.** How did the CC50 ([1]; cell viability assay) turn out when `Nc1nc2cnc(C(=O)N3CCC4(CC4)[C@@H]4Oc5cc(OC(F)(F)F)ccc5[C@@H]43)cc2n2cncc12` [Ff-618, (4-aminoimidazo[1,5-a]pyrido[3,4-e]pyrazin-8-yl)((4aS,9bS)-7-(trifluoromethoxy)-2,3,4a,9b-tetrahydro-1H-spiro[benzofuro[3,2-b]pyridine-4,1′-cyclopropan]-1-yl)methanone] was run?
**A.** The CC50 was less than 100 nM.

**Q.** What about the EC50 selectivity [2, 4] of the same molecule?
**A.** Its EC50 selectivity is 294.

**Q.** And the pEC50 [2]?
**A.** The pEC50 was 8.30 to 9.00.

**Q.** With `[2H]C1([2H])CC[C@@H]2Oc3cc(OC(F)(F)F)ccc3[C@@H]2N1C(=O)c1cc2c(cn1)nc(N)c1cncn12` [Fg-59, (4-aminoimidazo[1,5-a]pyrido[3,4-e]pyrazin-8-yl)((4aS,9bS)-7-(trifluoromethoxy)-3,4,4a,9b-tetrahydrobenzofuro[3,2-b]pyridin-1(2H)-yl-2,2-d2)methanone] as the molecule, how does the CC50 ([1]; cell viability assay) read?
**A.** Its CC50 is less than 100 nM.

**Q.** What about the EC50 selectivity [2, 4] of the same molecule?
**A.** The EC50 selectivity was 208.

**Q.** What about the pEC50 [2] of the same molecule?
**A.** The pEC50 was no less than 9.00.

**Q.** For `CCN(Cc1ccc(C(F)(F)F)cc1F)C(=O)c1cc2c(cc1F)nc(N)c1cncn12` [Ff-26, 4-amino-N-ethyl-7-fluoro-N-[[2-fluoro-4-(trifluoromethyl)phenyl]methyl]imidazo[1,5-a]quinoxaline-8-carboxamide], which CC50 ([1]; cell viability) is on record?
**A.** The CC50 was less than 100 nM.

**Q.** And the EC50 selectivity [2, 3]?
**A.** The EC50 selectivity was 210.

**Q.** And the pEC50 [2]?
**A.** Its pEC50 is no less than 9.00.

**Q.** Which CC50 ([1]; cell viability assay) does the source give for `Cc1ncn2c1c(N)nc1ccc(C(=O)N(C)C3CCc4nc(C(F)(F)F)ccc43)cc12` (stereo not drawn) [Fg-12, 4-amino-N,3-dimethyl-N-(2-(trifluoromethyl)-6,7-dihydro-5H-cyclopenta[b]pyridin-5-yl)imidazo[1,5-a]quinoxaline-8-carboxamide] here?
**A.** Its CC50 is less than 100 nM.

**Q.** And the EC50 selectivity [2, 4]?
**A.** The EC50 selectivity was 168.

**Q.** What about the pEC50 [2] of the same molecule?
**A.** The pEC50 was no less than 9.00.

**Q.** Which CC50 ([1]; cell viability) does the source give for `Cc1ncc2c(N)nc3ccc(C(=O)N4CCC5(CC4)CC(=O)c4ccccc4O5)cc3n12` [Ff-60, 1′-(4-amino-1-methylimidazo[1,5-a]quinoxaline-8-carbonyl)spiro[chromane-2,4′-piperidin]-4-one] here?
**A.** The CC50 was 100 to 1000 nM.

**Q.** And the EC50 selectivity [2, 3]?
**A.** Its EC50 selectivity is 371.

**Q.** What about the pEC50 [2] of the same molecule?
**A.** Its pEC50 is less than 8.30.

**Q.** With `COC(C)(C)C#Cc1ccc2c(c1)OC[C@H]2N(C)C(=O)c1ccc2nc(N)c3cnc(C)n3c2c1` [Ff-18, (S)-4-amino-N-(6-(3-methoxy-3-methylbut-1-yn-1-yl)-2,3-dihydrobenzofuran-3-yl)-N,1-dimethylimidazo[1,5-a]quinoxaline-8-carboxamide] as the molecule, how does the CC50 ([1]; cell viability) read?
**A.** Its CC50 is 100 to 1000 nM.

**Q.** And the EC50 selectivity [2, 3]?
**A.** The EC50 selectivity was 447.

**Q.** And the pEC50 [2]?
**A.** The pEC50 was less than 8.30.

**Q.** How did the CC50 ([1]; cell viability assay) turn out when `[2H]C1([2H])C[C@H]2C[C@H](c3ccc(C(F)(F)F)cc3O2)N1C(=O)c1cc2c(cc1F)nc(N)c1cncn12` [Ff-637, (4-amino-7-fluoroimidazo[1,5-a]quinoxalin-8-yl)((2S,6R)-9-(trifluoromethyl)-3,4-dihydro-2H-2,6-methanobenzo[b][1,5]oxazocin-5(6H)-yl-4,4-d2)methanone] was run?
**A.** Its CC50 is less than 100 nM.

**Q.** And the EC50 selectivity [2, 4]?
**A.** The EC50 selectivity was 182.

**Q.** And the pEC50 [2]?
**A.** Its pEC50 is no less than 9.00.

**Q.** With `Nc1nc2cc(Br)c(C(=O)N3CCC[C@@H]4Oc5cc(C(F)(F)F)ccc5[C@@H]43)cc2n2cncc12` [Fg-50, (4-amino-7-bromoimidazo[1,5-a]quinoxalin-8-yl)((4aS,9bS)-7-(trifluoromethyl)-3,4,4a,9b-tetrahydrobenzofuro[3,2-b]pyridin-1(2H)-yl)methanone] as the molecule, how does the CC50 ([1]; cell viability assay) read?
**A.** The CC50 was less than 100 nM.

**Q.** And the EC50 selectivity [2, 4]?
**A.** The EC50 selectivity was 47.

**Q.** And the pEC50 [2]?
**A.** The pEC50 was no less than 9.00.

**Q.** Which results are given for `C[C@H]1CN(C(=O)c2cc3c(cc2F)nc(N)c2cncn23)[C@H]2c3cc(F)c(Br)cc3C[C@H]2O1` [Ff-165, (4-amino-7-fluoroimidazo[1,5-a]quinoxalin-8-yl)((2S,4aS,9aR)-7-bromo-6-fluoro-2-methyl-2,3,9,9a-tetrahydroindeno[2,1-b][1,4]oxazin-4(4aH)-yl)methanone]?
**A.** CC50 ([1]; cell viability): < 100 nM; EC50 selectivity [2, 3]: 43; pEC50 [2]: ≥ 9.00

**Q.** How did the CC50 ([1]; cell viability) turn out when `CN(C(=O)c1cc2c(cc1F)nc(N)c1cncn12)[C@@H]1COc2cc(C(F)(F)F)ccc21` [Ff-12, (S)-4-amino-7-fluoro-N-methyl-N-(6-(trifluoromethyl)-2,3-dihydrobenzofuran-3-yl)imidazo[1,5-a]quinoxaline-8-carboxamide] was run?
**A.** Its CC50 is less than 100 nM.

**Q.** And the EC50 selectivity [2, 3]?
**A.** Its EC50 selectivity is 196.

**Q.** And the pEC50 [2]?
**A.** The pEC50 was no less than 9.00.

**Q.** With `CN(C(=O)c1cc2c(cc1F)nc(N)c1cncn12)[C@@H](c1ccc(C(F)(F)F)cc1F)C(F)F` [Fb-8, (S)-4-amino-N-(2,2-difluoro-1-(2-fluoro-4-(trifluoromethyl)phenyl)ethyl)-7-fluoro-N-methylimidazo[1,5-a]quinoxaline-8-carboxamide] as the molecule, how does the CC50 ([1]; cell viability) read?
**A.** The CC50 was less than 100 nM.

**Q.** And the EC50 selectivity [2, 3]?
**A.** Its EC50 selectivity is 224.

**Q.** What about the pEC50 [2] of the same molecule?
**A.** Its pEC50 is no less than 9.00.

**Q.** `C[C@H]1C[C@@H]2Oc3cc(C(F)(F)F)ccc3[C@@H]2N(C(=O)c2cc3c(cn2)nc(N)c2cncn23)C1` (single isomer, unassigned) [Ff-399] was tested. Which CC50 ([1]; cell viability assay) did it give?
**A.** The CC50 was less than 100 nM.

**Q.** And the EC50 selectivity [2, 4]?
**A.** Its EC50 selectivity is 47.

**Q.** What about the pEC50 [2] of the same molecule?
**A.** Its pEC50 is no less than 9.00.

**Q.** What does the source list for `C[C@H]1CN(C(=O)c2cc3c(cc2Cl)nc(N)c2cncn23)[C@@H](c2ccc(C(F)(F)F)cn2)CO1` [Ff-138, (4-amino-7-chloroimidazo[1,5-a]quinoxalin-8-yl)((2S,5S)-2-methyl-5-(5-(trifluoromethyl)pyridin-2-yl)morpholino)methanone]?
**A.** CC50 ([1]; cell viability): < 100 nM; EC50 selectivity [2, 3]: 20; pEC50 [2]: ≥ 9.00

**Q.** How did the CC50 ([1]; cell viability assay) turn out when `Cc1cn(-c2ccc3c(c2)OC[C@H]3N(C)C(=O)c2cc3c(cc2F)nc(N)c2cncn23)cn1` [Ff-544, (S)-4-amino-7-fluoro-N-methyl-N-(6-(4-methyl-1H-imidazol-1-yl)-2,3-dihydrobenzofuran-3-yl)imidazo[1,5-a]quinoxaline-8-carboxamide] was run?
**A.** Its CC50 is less than 100 nM.

**Q.** And the EC50 selectivity [2, 4]?
**A.** The EC50 selectivity was 109.

**Q.** What about the pEC50 [2] of the same molecule?
**A.** The pEC50 was 8.30 to 9.00.

**Q.** For `Nc1nc2ccc(C(=O)N3CCC[C@@H]4Oc5cc(S(F)(F)(F)(F)F)ccc5[C@@H]43)cc2n2cncc12` [Ff-664, (4-aminoimidazo[1,5-a]quinoxalin-8-yl)((4aS,9bS)-7-(pentafluoro-16-sulfaneyl)-3,4,4a,9b-tetrahydrobenzofuro[3,2-b]pyridin-1(2H)-yl)methanone], which CC50 ([1]; cell viability assay) is on record?
**A.** The CC50 was less than 100 nM.

**Q.** And the EC50 selectivity [2, 4]?
**A.** Its EC50 selectivity is 79.

**Q.** What about the pEC50 [2] of the same molecule?
**A.** The pEC50 was no less than 9.00.

**Q.** With `CC(=O)N(C)N(Cc1nc2cc(Cl)ccc2s1)C(=O)c1ccc2nc(N)c3cncn3c2c1` [Fb-5, N′-acetyl-4-amino-N-((5-chlorobenzo[d]thiazol-2-yl)methyl)-N′-methylimidazo[1,5-a]quinoxaline-8-carbohydrazide] as the molecule, how does the CC50 ([1]; cell viability) read?
**A.** Its CC50 is 100 to 1000 nM.

**Q.** And the EC50 selectivity [2, 3]?
**A.** The EC50 selectivity was 320.

**Q.** What about the pEC50 [2] of the same molecule?
**A.** The pEC50 was less than 8.30.
